In patent publication US9862925B2, “Human stem cell-derived neural precursors for treatment of autoimmune diseases of the central nervous system” (Hadasit Medical Research Services & Development Limited, priority 2007, dated 2018):

What was measured:
hESCs = test: In vitro oligodendroglial differentiation of hESCs following retinoic acid treatment; format: cell-based, human; conditions: RA treatment
Protocol: Derivation of enriched population of committed oligodendrocyte progenitor cells (OPCs): Initial neural differentiation of hESC was induced as described above for the derivation of enriched population of uncommitted neural precursors. Following two weeks of culturing of hESC clusters in NPM supplemented with noggin (700 ng/ml), and the oligodendroglial mitogens bFGF (20 ng/ml) and EGF (20 ng/ml), the cultures were treated with retinoic acid (RA) (sigma) (10 μM) to induce caudal specification of the neuralized cells. Following 7 days of RA treatment, cultures were propagated as floating spheres in the oligodendroglial specific, modified Sato medium supplemented with the oligodendroglial mitogens bFGF (20 ng/ml), EGF (20 ng/ml) and PDGF-AA (50 ng/ml), and the oligodendroglial survival and maturation factors neurotrophine 3 (NT3) (5 ng/ml) and triiodothyronine (T3) (40 ng/ml).
In vitro oligodendroglial differentiation of hESCs was examined. The experimental protocol included initial induction of human ESCs to differentiate as free floating clusters, under defined culture conditions, in the presence of noggin into early multipotent neural precursors according to the published protocols as described above. After two weeks, they were treated with retinoic acid (RA) and propagated as floating spheres in modified Sato medium and mitogens At sequential week intervals, differentiation was induced by plating on fibronectin and withdrawal of the mitogens, and the expression of oligodendroglial markers were analyzed by immunostaining. After three weeks of propagation as free floating clusters, followed by plating and differentiation for 48 hours, the differentiating cells expressed the oligodendroglial markers NG2 (12%) (FIGS. 7A,[…], 7D, 7F) GD3 (20%) (FIGS. 7B, 7C) and PDGFRα (15%) (FIGS. 7E, 7F). Although at this stage of three weeks propagation, when enrichment for OPCs was obtained, markers of mature oligodendrocytes such as O4 and GalC were not detected, even after 7-10 days of differentiation. Only in cultures that were propagated for more than 5 weeks and induced to differentiate for 7 days, O4 and GalC were expressed by 3% and 1% of differentiating cells, respectively (FIGS. 7G, 7I (O4) and FIGS. 7H, 7I (GalC). Nuclei in FIGS. 7C, 7F, 7G-7I were counter stained with DAPI.

[1] = tested on: hESC-derived multipotent uncommitted neural precursors; test: Oligodendroglial differentiation of hESCs with retinoic acid and purmorphamine, propagation in low purmorphamine; format: cell-based, human
Protocol: To derive an expandable population of neural precursors enriched for oligodendroglial progenitors (committed), initial neuralization of hESCs was induced as above with or without noggin supplementation. After 2 weeks of culturing in NPM supplemented with mitogens +/−noggin the clusters were treated with RA (1-10 μM; preferably 1 μM) and the hedgehog agonist, Purmurphamine (Merck) (0.5-2 μM; preferably 0.5 μM) to induce ventral-caudal specification of the neuralized cells. Following 7-21 days, preferably 21 days of treatment, the cultures were further propagated for three to 20 more weeks as floating spheres in modified Sato medium supplemented with low concentrations of purmorphamine (0.2-0.5 μM; preferably 0.5 μM), bFGF (20 ng/ml), EGF (20 ng/ml), (NT3; 5 ng/ml) and ascorbic acid (200 nM). For final differentiation, the clusters were plated on poly-D-Lysine (10 μg/ml) and fibronectin (5 μg/ml) coated coverslips in modified Sato medium supplemented with NT3 ([…]), ascorbic acid (200 nM) T3 (40 ng/ml) IGF1 (10 ng/ml;) with or without Rock inhibitor (10 μM; Sigma) for 2-21 days.
To develop expandable cultures enriched for oligodendroglial committed progenitors, hESCs clusters were induced to differentiate as free floating clusters into multipotent uncommitted neural precursors as above with or without noggin. After two weeks of initial neural induction the multipotent uncommitted neural precursors were further cultured for 1-3 weeks, preferably 3 weeks, as floating spheres in modified Sato medium supplemented with mitogens, retinoic acid (RA) and the hedgehog (HH) agonist purmorphamine. During this culture period the early multipotent neural precursors gradually become enriched with Olig2+ oligodendroglial precursors (30-50% of total cells).
For further expansion of the oligodendroglial precursors, the floating spheres were propagated in Sato medium supplemented with mitogens, and low concentrations (0.5 μM) of purmorphamine. After 3-20 weeks of propagation as free floating clusters and plating on fibronectin for 24-48 hours, expression of the OPC markers Olig2 (FIG. 8A), PDGFRα (FIG. 8B) and NG2 (FIG. 8C) were detected in 30%, 20% and 20% of the differentiating cells, respectively. Following further 7-21 days of differentiation in the presence of NT3, AA, T3 and IGF1 +/− Rock inhibitor, markers of mature oligodendrocytes such as O4 (FIG. 8D), GalC (FIG. 8E) and MBP (FIG. 8F) were detected in 20%, 15% and 3% of the plated cells, respectively.

[2] = propagated more than 5 weeks, differentiated 7 days
[3] = three weeks propagation as floating clusters, differentiation 48 hours
[4] = after RA + purmorphamine, 3-20 weeks propagation with 0.5 μM purmorphamine, plated on fibronectin 24-48 hours
[5] = propagation with 0.5 μM purmorphamine, further 7-21 days differentiation with NT3, AA, T3, IGF1 +/- Rock inhibitor

Row | SMILES | differentiating cells expressing GalC (hESCs; [2]) [%] | differentiating cells expressing O4 (hESCs; [2]) [%] | differentiating cells expressing GD3 (hESCs; [3]) [%] | differentiating cells expressing NG2 (hESCs; [3]) [%] | differentiating cells expressing PDGFRα (hESCs; [3]) [%] | Olig2+ oligodendroglial precursors (of total cells) ([1]; 1-3 weeks as floating spheres in modified Sato medium with mitogens, RA and purmorphamine) | differentiating cells expressing NG2 [1, 4] [%] | differentiating cells expressing Olig2 [1, 4] [%] | differentiating cells expressing PDGFRα [1, 4] [%] | plated cells expressing GalC [1, 5] [%] | plated cells expressing MBP [1, 5] [%] | plated cells expressing O4 [1, 5] [%]
1 | CC1=C(/C=C/C(C)=C/C=C/C(C)=C/C(=O)O)C(C)(C)CCC1 [retinoic acid] | 1 | 3 | 20 | 12 | 15 |  |  |  |  |  |  | 
2 | c1ccc2c(Oc3nc(Nc4ccc(N5CCOCC5)cc4)c4ncn(C5CCCCC5)c4n3)cccc2c1 [purmorphamine] |  |  |  |  |  | 30-50% | 20 | 30 | 20 | 15 | 3 | 20
